According to PMC6691788, “Design and synthesis of phthalazine-based compounds as potent anticancer agents with potential antiangiogenic activity via VEGFR-2 inhibition” (Journal of Enzyme Inhibition and Medicinal Chemistry, 2019):

What was measured:
Assay in all cases: NCI 60 cell panel SRB screen
HL-60(TB) = type: cell-based; conditions: Homo sapiens; for activity at 10 µM: single dose 10 μM, read-out: percent cell growth promotion
SR = type: cell-based; conditions: Homo sapiens; for activity at 10 µM: single dose 10 μM, read-out: percent cell growth promotion
HOP-62 = type: cell-based; conditions: Homo sapiens; for activity at 10 µM: HOP-62, single dose 10 μM, read-out: percent cell growth promotion
NCI-H226 = type: cell-based; conditions: Homo sapiens; for activity at 10 µM: NCI-H226, single dose 10 μM, read-out: percent cell growth promotion
COLO 205 = type: cell-based; conditions: Homo sapiens; for activity at 10 µM: COLO 205, single dose 10 μM, read-out: percent cell growth promotion
HCC-2998 = type: cell-based; conditions: Homo sapiens; for activity at 10 µM: HCC-2998, single dose 10 μM, read-out: percent cell growth promotion
HCT-15 = type: cell-based; conditions: Homo sapiens; for activity at 10 µM: HCT-15, single dose 10 μM, read-out: percent cell growth promotion
SNB-19 = type: cell-based; conditions: Homo sapiens; for activity at 10 µM: SNB-19, single dose 10 μM, read-out: percent cell growth promotion
MALME-3M = type: cell-based; conditions: Homo sapiens; for activity at 10 µM: read-out: percent cell growth promotion
M14 = type: cell-based; conditions: Homo sapiens; for activity at 10 µM: M14, read-out: percent cell growth promotion
SK-MEL-28 = type: cell-based; conditions: Homo sapiens; for activity at 10 µM: SK-MEL-28, read-out: percent cell growth promotion
OVCAR-8 = type: cell-based; conditions: Homo sapiens; for activity at 10 µM: OVCAR-8, single dose 10 μM, read-out: percent cell growth promotion
786-0 = type: cell-based; conditions: Homo sapiens; for activity at 10 µM: 786-0, single dose 10 μM, read-out: percent cell growth promotion
A498 = type: cell-based; conditions: Homo sapiens; for activity at 10 µM: A498, single dose 10 μM, read-out: percent cell growth promotion
CAKI-1 = type: cell-based, human; conditions: Homo sapiens; CAKI-1, single dose 10 μM; read-out: percent cell growth promotion
RXF 393 = type: cell-based; conditions: Homo sapiens; for activity at 10 µM: RXF 393, single dose 10 μM, read-out: percent cell growth promotion
PC-3 = type: cell-based; conditions: Homo sapiens; for activity at 10 µM: PC-3, single dose 10 μM, read-out: percent cell growth promotion
DU-145 = type: cell-based; conditions: Homo sapiens; for activity at 10 µM: DU-145, single dose 10 μM, read-out: percent cell growth promotion
BT-549 = type: cell-based; conditions: Homo sapiens; for activity at 10 µM: BT-549, read-out: percent cell growth promotion
[1] = 5 log dose, 48 h, read-out: LC50 (the source's name)

Structure (SMILES): Clc1ccc(Nc2nnc(CNc3ccccc3)c3ccccc23)cc1 [Compound 16a, N-(4-Chlorophenyl)-4-((phenylamino)methyl)phthalazin-1-amine]
- GI50 (HL-60(TB); 5 log dose): 3.71 µM
- IC (TGI) (HL-60(TB); 5 log dose): 13 µM
- CC50 (HL-60(TB); [1]): > 25 µM
- activity at 10 µM (HL-60(TB)): -13.3%
- GI50 (SR; 5 log dose): 1.75 µM
- IC (TGI) (SR; 5 log dose): 12.3 µM
- CC50 (SR; [1]): > 25 µM
- activity at 10 µM (SR): -9.19%
- GI50 (HOP-62; HOP-62, 5 log dose): 2.86 µM
- IC (TGI) (HOP-62; HOP-62, 5 log dose): 8.84 µM
- CC50 (HOP-62; HOP-62, 5 log dose, 48 h, read-out: LC50 (the source's name)): > 25 µM
- activity at 10 µM (HOP-62): 27.4%
- GI50 (NCI-H226; NCI-H226, 5 log dose): 2.52 µM
- IC (TGI) (NCI-H226; NCI-H226, 5 log dose): 7.98 µM
- CC50 (NCI-H226; NCI-H226, 5 log dose, 48 h, read-out: LC50 (the source's name)): > 25 µM
- activity at 10 µM (NCI-H226): 25%
- GI50 (COLO 205; COLO 205, 5 log dose): 0.91 µM
- IC (TGI) (COLO 205; COLO 205, 5 log dose): 5.39 µM
- CC50 (COLO 205; COLO 205, 5 log dose, 48 h, read-out: LC50 (the source's name)): 20.5 µM
- activity at 10 µM (COLO 205): 11.9%
- GI50 (HCC-2998; HCC-2998, 5 log dose): 4.85 µM
- IC (TGI) (HCC-2998; HCC-2998, 5 log dose): 1.59 µM
- LC50 (50% lethal concentration) (HCC-2998; HCC-2998, 5 log dose, 48 h): > 25 µM
- activity at 10 µM (HCC-2998): 18.3%
- GI50 (HCT-15; HCT-15, 5 log dose): 2.99 µM
- IC (TGI) (HCT-15; HCT-15, 5 log dose): 9.39 µM
- CC50 (HCT-15; HCT-15, 5 log dose, 48 h, read-out: LC50 (the source's name)): > 25 µM
- activity at 10 µM (HCT-15): 13.4%
- GI50 (SNB-19; SNB-19, 5 log dose): 4.71 µM
- IC (TGI) (SNB-19; SNB-19, 5 log dose): 22.7 µM
- CC50 (SNB-19; SNB-19, 5 log dose, 48 h, read-out: LC50 (the source's name)): > 25 µM
- activity at 10 µM (SNB-19): 25.9%
- GI50 (MALME-3M; Malme-3M): 2.66 µM
- IC (TGI) (MALME-3M; Malme-3M, read-out: TGI): 9.92 µM
- activity at 10 µM (MALME-3M; Malme-3M): -13.8%
- CC50 (MALME-3M; MALME-3M, 5 log dose, 48 h, read-out: LC50 (the source's name)): > 25 µM
- GI50 (M14; M14): 1.74 µM
- IC (TGI) (M14; M14, read-out: TGI): 6.65 µM
- activity at 10 µM (M14): 5.8%
- CC50 (M14; M14, 5 log dose, 48 h, read-out: LC50 (the source's name)): 20.6 µM
- GI50 (SK-MEL-28; SK-MEL-28): 3.67 µM
- IC (TGI) (SK-MEL-28; SK-MEL-28, read-out: TGI): 10.5 µM
- activity at 10 µM (SK-MEL-28): 14.9%
- CC50 (SK-MEL-28; SK-MEL-28, 5 log dose, 48 h, read-out: LC50 (the source's name)): > 25 µM
- GI50 (OVCAR-8; OVCAR-8, 5 log dose): 4.63 µM
- IC (TGI) (OVCAR-8; OVCAR-8, 5 log dose): 16.8 µM
- CC50 (OVCAR-8; OVCAR-8, 5 log dose, 48 h, read-out: LC50 (the source's name)): > 25 µM
- activity at 10 µM (OVCAR-8): 18.2%
- GI50 (786-0; 786-0, 5 log dose): 4.01 µM
- IC (TGI) (786-0; 786-0, 5 log dose): 12.5 µM
- CC50 (786-0; 786-0, 5 log dose, 48 h, read-out: LC50 (the source's name)): > 25 µM
- activity at 10 µM (786-0): 21.4%
- GI50 (A498; A498, 5 log dose): 1.45 µM
- IC (TGI) (A498; A498, 5 log dose): 6.6 µM
- CC50 (A498; A498, 5 log dose, 48 h, read-out: LC50 (the source's name)): 17.6 µM
- activity at 10 µM (A498): 24.7%
- activity at 10 µM (CAKI-1): 28.2%
- GI50 (RXF 393; RXF 393, 5 log dose): 2.6 µM
- IC (TGI) (RXF 393; RXF 393, 5 log dose): 8.12 µM
- CC50 (RXF 393; RXF 393, 5 log dose, 48 h, read-out: LC50 (the source's name)): > 25 µM
- activity at 10 µM (RXF 393): 25.7%
- GI50 (PC-3; PC-3, 5 log dose): 14.4 µM
- IC (TGI) (PC-3; PC-3, 5 log dose): 14.4 µM
- CC50 (PC-3; PC-3, 5 log dose, 48 h, read-out: LC50 (the source's name)): > 25 µM
- activity at 10 µM (PC-3): 7.15%
- GI50 (DU-145; DU-145, 5 log dose): > 25 µM
- IC (TGI) (DU-145; DU-145, 5 log dose): > 25 µM
- CC50 (DU-145; DU-145, 5 log dose, 48 h, read-out: LC50 (the source's name)): > 25 µM
- activity at 10 µM (DU-145): 19%
- GI50 (BT-549; BT-549): 2.93 µM
- IC (TGI) (BT-549; BT-549, read-out: TGI): 8.2 µM
- activity at 10 µM (BT-549): 4.94%
- CC50 (BT-549; BT-549, 5 log dose, 48 h, read-out: LC50 (the source's name)): 22.9 µM

Structure (SMILES): c1ccc(N2CCN(c3nncc4ccccc34)CC2)nc1 [Compound 8d, 1–(4-(Pyridin-2-yl)piperazin-1-yl)phthalazine]
- activity at 10 µM (HL-60(TB)): 96.6%
- activity at 10 µM (SR): 103%
- activity at 10 µM (HOP-62): 110%
- activity at 10 µM (NCI-H226): 98.1%
- activity at 10 µM (COLO 205): 106%
- activity at 10 µM (HCC-2998): 117%
- activity at 10 µM (HCT-15): 108%
- activity at 10 µM (SNB-19): 113%
- activity at 10 µM (MALME-3M; Malme-3M): 109%
- activity at 10 µM (M14): 102%
- activity at 10 µM (SK-MEL-28): 108%
- activity at 10 µM (OVCAR-8): 97.8%
- activity at 10 µM (786-0): 104%
- activity at 10 µM (A498): 97.8%
- activity at 10 µM (CAKI-1): 109%
- activity at 10 µM (RXF 393): 108%
- activity at 10 µM (PC-3): 101%
- activity at 10 µM (DU-145): 99%
- activity at 10 µM (BT-549): 104%
